From patent publication US20260250290A1 (BRISTOL-MYERS SQUIBB COMPANY, priority 2023, published 2026) come the findings set out here.

This test addresses T1, full length SGK1 (Homo sapiens, UniProt O00141).
T1 construct: 125 μM full length SGK1 (Life Technologies Part #PR7358A); purchased Life Technologies PR7358A
T1 sequence (O00141 1-431): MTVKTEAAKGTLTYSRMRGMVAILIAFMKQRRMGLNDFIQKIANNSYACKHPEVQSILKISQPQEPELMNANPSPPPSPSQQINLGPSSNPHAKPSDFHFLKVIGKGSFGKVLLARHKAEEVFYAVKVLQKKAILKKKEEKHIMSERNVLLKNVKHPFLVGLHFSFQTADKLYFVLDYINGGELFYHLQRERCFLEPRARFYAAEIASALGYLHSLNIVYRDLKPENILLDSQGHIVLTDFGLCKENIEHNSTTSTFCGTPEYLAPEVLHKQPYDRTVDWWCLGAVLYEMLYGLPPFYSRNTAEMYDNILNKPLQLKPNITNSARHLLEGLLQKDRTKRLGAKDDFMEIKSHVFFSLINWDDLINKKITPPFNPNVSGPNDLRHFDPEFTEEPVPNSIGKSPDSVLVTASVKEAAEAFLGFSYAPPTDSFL
Description: SGK1 inhibition Assay A (Caliper LabChip electrophoretic separation of fluorescent peptide substrate and phosphorylated product). The format is biochemical. The conditions noted are these: Assay A; 20 μM ATP, 40 min incubation; read-out: SGK1 IC50.

pIC50: −log10 of the molar value. Where a name gives a salt, the structure may show the parent alone.

For orientation: pIC50 means −log10 of the IC50, conventionally taken in molar units. In the case of `Nc1ncnn2c(-c3ccnc(F)c3)cc(N3CCC[C@@H](NC(=O)c4cc(Cl)c(Cl)s4)C3)c12` [Example 150, (R)-N-(1-(4-amino-7-(2-fluoropyridin-4-yl)pyrrolo[2,1-f][1,2,4]triazin-5-yl)piperidin-3-yl)-4,5-dichlorothiophene-2-carboxamide], the pIC50 was 8.30.
Then `Nc1ncnn2c(-c3ccnc(F)c3)cc(N3CCC[C@@H](NC(=O)Cc4ccc(Cl)s4)C3)c12` [Example 151, (R)-N-(1-(4-amino-7-(2-fluoropyridin-4-yl)pyrrolo[2,1-f][1,2,4]triazin-5-yl)piperidin-3-yl)-2-(5-chlorothiophen-2-yl)acetamide], with 6.55; and `Nc1ncnn2c(-c3ccnc(F)c3)cc(N3CCC[C@@H](NC(=O)c4ccc(C(F)F)s4)C3)c12` [Example 152, (R)-N-(1-(4-amino-7-(2-fluoropyridin-4-yl)pyrrolo[2,1-f][1,2,4]triazin-5-yl)piperidin-3-yl)-5-(difluoromethyl)thiophene-2-carboxamide, TFA], with 8.30.
In the case of `Nc1ncnn2c(-c3ccnc(F)c3)cc(N3CCC[C@@H](NC(=O)c4cccs4)C3)c12` [Example 153, (R)-N-(1-(4-amino-7-(2-fluoropyridin-4-yl)pyrrolo[2,1-f][1,2,4]triazin-5-yl)piperidin-3-yl)thiophene-2-carboxamide] it was 9.00; in that of `Nc1ncnn2c(-c3ccnc(F)c3)cc(N3CCC[C@@H](NC(=O)c4ccc(C(F)(F)F)s4)C3)c12` [Example 154, (R)-N-(1-(4-amino-7-(2-fluoropyridin-4-yl)pyrrolo[2,1-f][1,2,4]triazin-5-yl)piperidin-3-yl)-5-(trifluoromethyl)thiophene-2-carboxamide, TFA], 8.15.
On to `Nc1ncnn2c(-c3ccnc(F)c3)cc(N3CCC[C@@H](NC(=O)c4ccsc4)C3)c12` [Example 155, (R)-N-(1-(4-amino-7-(2-fluoropyridin-4-yl)pyrrolo[2,1-f][1,2,4]triazin-5-yl)piperidin-3-yl)thiophone-3-carboxamide], for which the negative-log IC50 (pIC50) was 8.70.
Then `COc1cscc1C(=O)N[C@@H]1CCCN(c2cc(-c3ccnc(F)c3)n3ncnc(N)c23)C1` [Example 156, (R)-N-(1-(4-amino-7-(2-fluoropyridin-4-yl)pyrrolo[2,1-f][1,2,4]triazin-5-yl)piperidin-3-yl)-4-methoxythiophene-3-carboxamide], with 8.52; and `Nc1ncnn2c(-c3ccnc(F)c3)cc(N3CCC[C@@H](NC(=O)c4cc(Cl)sc4Cl)C3)c12` [Example 157, (R)-N-(1-(4-amino-7-(2-fluoropyridin-4-yl)pyrrolo[2,1-f][1,2,4]triazin-5-yl)piperidin-3-yl)-2,5-dichlorothiophene-3-carboxamide], with 7.82; and `COc1c(C(=O)N[C@@H]2CCCN(c3cc(-c4ccnc(F)c4)n4ncnc(N)c34)C2)csc1Cl` [Example 158, (R)-N-(1-(4-amino-7-(2-fluoropyridin-4-yl)pyrrolo[2,1-f][1,2,4]triazin-5-yl)piperidin-3-yl)-5-chloro-4-methoxythiophene-3-carboxamide], with 8.22.
Regarding `Nc1ncnn2c(-c3ccnc(F)c3)cc(N3CCC[C@@H](NC(=O)c4csc5ccccc45)C3)c12` [Example 159, (R)-N-(1-(4-amino-7-(2-fluoropyridin-4-yl)pyrrolo[2,1-f][1,2,4]triazin-5-yl)piperidin-3-yl)benzo[b]thiophene-3-carboxamide, TFA], the pIC50 was 7.77.
Then `Nc1ncnn2c(-c3ccnc(F)c3)cc(N3CCC[C@@H](NC(=O)c4csc5c4CCCC5)C3)c12` [Example 160, (R)-N-(1-(4-amino-7-(2-fluoropyridin-4-yl)pyrrolo[2,1-f][1,2,4]triazin-5-yl)piperidin-3-yl)-4,5,6,7-tetrahydrobenzo[b] thiophene-3-carboxamide, TFA], with 7.70; and `Nc1ncnn2c(-c3ccnc(F)c3)cc(N3CCC[C@@H](NC(=O)c4csc(Cl)c4)C3)c12` [Example 161, (R)-N-(1-(4-amino-7-(2-fluoropyridin-4-yl)pyrrolo[2,1-f][1,2,4]triazin-5-yl)piperidin-3-yl)-5-chlorothiophone-3-carboxamide], with 8.70.
For `COCCOc1cc(Cl)sc1C(=O)N[C@@H]1CCCN(c2cc(-c3ccc(C(N)=O)c(F)c3)n3ncnc(N)c23)C1` [Example 162, (R)-N-(1-(4-amino-7-(4-carbamoyl-3-fluorophenyl)pyrrolo [2,1-f][1,2,4]triazin-5-yl)piperidin-3-yl)-5-chloro-3-(2-methoxyethoxy) thiophene-2-carboxamide], the pIC50 was 8.30.
In the case of `NC(=O)c1ccc(-c2cc(N3CCC[C@@H](NC(=O)c4sc(Cl)cc4OCCN4CCOCC4)C3)c3c(N)ncnn23)cc1F` [Example 163, (R)-N-(1-(4-amino-7-(4-carbamoyl-3-fluorophenyl)pyrrolo [2,1-f][1,2,4]triazin-5-yl)piperidin-3-yl)-5-chloro-3-(2-morpholinoethoxy) thiophene-2-carboxamide, TFA] it was 8.22.
In the case of `CN(C)CCOc1cc(Cl)sc1C(=O)N[C@@H]1CCCN(c2cc(-c3ccc(C(N)=O)c(F)c3)n3ncnc(N)c23)C1` [Example 164, (R)-N-(1-(4-amino-7-(4-carbamoyl-3-fluorophenyl)pyrrolo [2,1-f][1,2,4]triazin-5-yl)piperidin-3-yl)-5-chloro-3-(2-(dimethylamino)ethoxy)thiophene-2-carboxamide, 2 TFA], the pIC50 is 8.70.
Consider `CC(C)(O)CCOc1cc(Cl)sc1C(=O)N[C@@H]1CCCN(c2cc(-c3ccnc(F)c3)n3ncnc(N)c23)C1` [Example 166, (R)—N-(1-(4-amino-7-(2-fluoropyridin-4-yl)pyrrolo[2,1-f][1,2,4]triazin-5-yl)piperidin-3-yl)-5-chloro-3-(3-hydroxy-3-methylbutoxy)thiophene-2-carboxamide], for which the pIC50 is 8.52.
In the case of `CN1CCN(CCOc2cc(Cl)sc2C(=O)N[C@@H]2CCCN(c3cc(-c4ccnc(F)c4)n4ncnc(N)c34)C2)CC1` [Example 167, (R)—N-(1-(4-amino-7-(2-fluoropyridin-4-yl)pyrrolo[2,1-f][1,2,4]triazin-5-yl)piperidin-3-yl)-5-chloro-3-(2-(4-methylpiperazin-1-yl)ethoxy)thiophene-2-carboxamide, 2 TFA] it was 9.00; in that of `C=Cc1cc(C)sc1C(=O)N[C@@H]1CCCN(c2cc(-c3ccnc(F)c3)n3ncnc(N)c23)C1` [Example 169, (R)—N-(1-(4-amino-7-(2-fluoropyridin-4-yl)pyrrolo[2,1-f][1,2,4]triazin-5-yl)piperidin-3-yl)-5-methyl-3-vinylthiophene-2-carboxamide], 7.92; in that of `Cc1cc(Br)c(C(=O)N[C@@H]2CCCN(c3cc(-c4ccnc(F)c4)n4ncnc(N)c34)C2)s1` [Example 170, (R)—N-(1-(4-amino-7-(2-fluoropyridin-4-yl)pyrrolo[2,1-f][1,2,4]triazin-5-yl)piperidin-3-yl)-3-bromo-5-methylthiophene-2-carboxamide], 8.22.
As to `CN(C)CCOc1cc(Cl)sc1C(=O)N[C@@H]1CCCN(c2cc(C3=CCNC3)n3ncnc(N)c23)C1` [Example 171, (R)—N-(1-(4-amino-7-(2,5-dihydro-1H-pyrrol-3-yl)pyrrolo[2,1-f][1,2,4]triazin-5-yl)piperidin-3-yl)-5-chloro-3-(2-(dimethylamino)ethoxy)thiophene-2-carboxamide, 3 TFA], the pIC50 was 7.80.
In the case of `CN(C)CCOc1cc(Cl)sc1C(=O)N[C@@H]1CCCN(c2cc(C3=CCNCC3)n3ncnc(N)c23)C1` [Example 172, (R)—N-(1-(4-amino-7-(1,2,3,6-tetrahydropyridin-4-yl)pyrrolo[2,1-f][1,2,4]triazin-5-yl)piperidin-3-yl)-5-chloro-3-(2-(dimethylamino)ethoxy)thiophene-2-carboxamide, 3 TFA] it was 6.46; in that of `COC(=O)N1CC=C(c2cc(N3CCC[C@@H](NC(=O)c4sc(Cl)cc4OCCN(C)C)C3)c3c(N)ncnn23)C1` [Example 173, methyl (R)-3-(4-amino-5-(3-(5-chloro-3-(2-(dimethylamino)ethoxy)thiophene-2-carboxamido)piperidin-1-yl)pyrrolo[2,1-f][1,2,4]triazin-7-yl)-2,5-dihydro-1H-pyrrole-1-carboxylate, 2 TFA], 8.40; in that of `COC(=O)N1CC=C(c2cc(N3CCC[C@@H](NC(=O)c4sc(Cl)cc4OCCN(C)C)C3)c3c(N)ncnn23)CC1` [Example 174, methyl (R)-4-(4-amino-5-(3-(5-chloro-3-(2-(dimethylamino)ethoxy)thiophene-2-carboxamido)piperidin-1-yl)pyrrolo[2,1-f][1,2,4]triazin-7-yl)-3,6-dihydropyridine-1(2H)-carboxylate], 7.43.
In the case of `CC(=O)N1CC=C(c2cc(N3CCC[C@@H](NC(=O)c4sc(Cl)cc4OCCN(C)C)C3)c3c(N)ncnn23)C1` [Example 175, (R)—N-(1-(7-(1-acetyl-2,5-dihydro-1H-pyrrol-3-yl)-4-aminopyrrolo[2,1-f][1,2,4]triazin-5-yl)piperidin-3-yl)-5-chloro-3-(2-(dimethylamino)ethoxy)thiophene-2-carboxamide, 2 TFA] it was 8.40.
